# Reference: ChEMBL document CHEMBL1932914, “A new class of non-thiazolidinedione, non-carboxylic-acid-based highly selective peroxisome proliferator-activated receptor (PPAR) γ agonists: design and synthesis of benzylpyrazole acylsulfonamides” (Bioorg Med Chem, 2012)
# Calls of active or inactive are those of the source. The rule behind the calls is not given here.
# Assays:
# [1] = biological target: PPAR delta/gamma (Homo sapiens) (UniProt P37231+Q03181); assay: Selectivity ratio of EC50 for human PPARdelta to EC50 for human PPARgamma1
# [2] = Clearance in human liver microsomes at 1 umol/L after 20 mins by HPLC analysis; format: ADME, Microsome; details: read-out: CLH
# [3] = biological target: T1, Peroxisome proliferator-activated receptor alpha (Homo sapiens, UniProt Q07869); assay: Agonist activity at human PPARalpha expressed in COS-1 cells after 1 day by luciferase reporter gene transactivation assay; format: functional, cell-based
# T1 sequence (Q07869 whole entry): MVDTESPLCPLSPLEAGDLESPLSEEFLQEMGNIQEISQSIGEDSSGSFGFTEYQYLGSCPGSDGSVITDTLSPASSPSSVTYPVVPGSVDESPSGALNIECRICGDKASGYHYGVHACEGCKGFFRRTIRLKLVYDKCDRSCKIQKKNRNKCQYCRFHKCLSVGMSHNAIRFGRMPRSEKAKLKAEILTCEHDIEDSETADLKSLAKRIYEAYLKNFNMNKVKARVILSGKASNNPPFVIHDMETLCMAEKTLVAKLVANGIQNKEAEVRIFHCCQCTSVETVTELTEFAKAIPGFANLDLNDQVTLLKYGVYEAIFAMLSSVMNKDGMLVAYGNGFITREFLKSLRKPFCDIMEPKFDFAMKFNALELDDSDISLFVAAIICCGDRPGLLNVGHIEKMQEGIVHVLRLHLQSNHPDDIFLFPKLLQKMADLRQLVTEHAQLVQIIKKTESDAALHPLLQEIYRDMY
# Homo sapiens = species on record: Homo sapiens; assay: Selectivity ratio of EC50 for human PPARalpha to EC50 for human PPARgamma1
# [4] = biological target: T2, Peroxisome proliferator-activated receptor delta (Homo sapiens, UniProt Q03181); assay: Agonist activity at human PPARdelta expressed in COS-1 cells after 2 days by luciferase reporter gene transactivation assay; format: functional, cell-based
# T2 sequence (Q03181 whole entry): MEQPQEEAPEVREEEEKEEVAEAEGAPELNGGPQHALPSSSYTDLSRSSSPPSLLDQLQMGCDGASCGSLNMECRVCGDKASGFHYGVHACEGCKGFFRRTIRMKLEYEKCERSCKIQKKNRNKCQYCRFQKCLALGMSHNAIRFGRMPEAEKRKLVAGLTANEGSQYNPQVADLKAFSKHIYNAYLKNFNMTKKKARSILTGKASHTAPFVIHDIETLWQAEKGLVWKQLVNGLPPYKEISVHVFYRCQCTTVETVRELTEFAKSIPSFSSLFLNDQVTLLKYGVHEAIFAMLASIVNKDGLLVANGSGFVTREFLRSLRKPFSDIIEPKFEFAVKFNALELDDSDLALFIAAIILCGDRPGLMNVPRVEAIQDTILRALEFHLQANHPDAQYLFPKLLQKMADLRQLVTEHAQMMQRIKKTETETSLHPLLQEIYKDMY
# [5] = biological target: T3, Peroxisome proliferator-activated receptor gamma (Homo sapiens, UniProt P37231); assay: Agonist activity at full length human PPARgamma1 transfected in […] cells co expressing RXRalpha and PPRE after 1 day by luciferase reporter gene transactivation assay; format: functional, cell-based, CHO-K1
# T3 sequence (P37231 whole entry): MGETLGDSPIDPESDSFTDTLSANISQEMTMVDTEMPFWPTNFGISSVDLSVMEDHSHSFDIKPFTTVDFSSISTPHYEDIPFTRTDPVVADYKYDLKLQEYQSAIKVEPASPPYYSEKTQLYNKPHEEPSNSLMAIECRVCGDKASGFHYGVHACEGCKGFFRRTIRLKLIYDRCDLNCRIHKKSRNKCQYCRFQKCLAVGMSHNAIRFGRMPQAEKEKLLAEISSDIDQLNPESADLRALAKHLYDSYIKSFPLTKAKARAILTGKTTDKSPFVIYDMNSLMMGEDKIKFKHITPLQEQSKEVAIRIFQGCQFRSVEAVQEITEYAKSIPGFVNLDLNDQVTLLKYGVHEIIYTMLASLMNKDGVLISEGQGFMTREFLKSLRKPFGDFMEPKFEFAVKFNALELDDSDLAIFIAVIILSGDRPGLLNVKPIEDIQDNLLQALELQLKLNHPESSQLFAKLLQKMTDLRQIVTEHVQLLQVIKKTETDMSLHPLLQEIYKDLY
# [6] = biological target: T4, Peroxisome proliferator-activated receptor alpha (Homo sapiens) (UniProt Q07869); assay: Agonist activity at human PPARalpha expressed in COS-1 cells at 10 uM after 1 day by luciferase reporter gene transactivation assay; format: functional, cell-based
# T4 sequence (whole entry): T1 sequence (Q07869 whole entry)
# Rattus norvegicus [7] = assay: Antidiabetic activity in po dosed fatty Wister rat assessed as reduction of plasma glucose level administered once daily for 7 days; format: functional; details: for ED25: 168 h
# [8] = Clearance in rat liver microsomes at 1 umol/L after 20 mins by HPLC analysis; format: ADME, Microsome; details: read-out: CLH
# [9] = biological target: T4, Peroxisome proliferator-activated receptor alpha (Homo sapiens); assay: Binding affinity to PPARalpha at 10 uM by competitive binding assay
# [10] = biological target: T3, Peroxisome proliferator-activated receptor gamma; assay: Displacement of [3H]-AD-5061 from human GST-tagged PPARgamma
# [11] = biological target: T5, Peroxisome proliferator-activated receptor delta (Homo sapiens) (UniProt Q03181); assay: Binding affinity to PPARdelta at 10 uM by competitive binding assay
# T5 sequence (whole entry): T2 sequence (Q03181 whole entry)
# Rattus norvegicus [12] = assay: Antidiabetic activity in po dosed fatty Wister rat assessed as reduction of triglyceride level administered once daily for 7 days; format: functional; details: for ED25: 168 h
SMILES,Ratio EC50 [1],microsomal CLint at 1 µM [2] [µL/min/mg],EC50 [3] [nM],Ratio EC50 (Homo sapiens),EC50 [4] [nM],EC50 ([5]; read-out: EC50) [nM],also measured
CCCCCS(=O)(=O)NC(=O)CCc1cc(C(C)C)nn1Cc1ccc(C(F)(F)F)cc1Cl,> 500,136,> 10000,> 500,> 10000,–,–
CC(C)Oc1cc(CCC(=O)NS(=O)(=O)c2ccccc2)n(Cc2ccc(Cl)cc2Cl)n1,–,–,> 10000,–,> 10000,110,–
COCCOc1cc(/C=C/C(=O)NS(=O)(=O)CCC(C)C)n(Cc2ccc(C(F)(F)F)cc2Cl)n1,> 500,34,> 10000,> 500,> 10000,9,Activity [6]: 47%
CC(C)Oc1cc(CCC(=O)NS(=O)(=O)C2CCCCC2)n(Cc2ccc(Cl)cc2Cl)n1,–,–,> 10000,–,> 10000,150,–
CCCCCS(=O)(=O)NC(=O)CCc1cc(OC(C)C)nn1Cc1ccc(Cl)cc1Cl,> 500,192,–,> 500,–,–,Activity (Rattus norvegicus [7]): inactive; microsomal CLint at 1 µM [8]: 128 µL/min/mg
CCCCCS(=O)(=O)NC(=O)c1cc(OCCCC)nn1Cc1ccc(Cl)cc1Cl,–,–,–,–,–,–,EC50 ([5]; cho-k1): Not Active
CC(C)Oc1cc(CCC(=O)O)n(Cc2ccc(Cl)cc2Cl)n1,–,–,–,–,–,500,–
CCCS(=O)(=O)NC(=O)CCc1cc(OC(C)C)nn1Cc1ccc(Cl)cc1Cl,–,–,–,–,–,160,–
CCCCCS(=O)(=O)NC(=O)CCc1cc(OCCOC)nn1Cc1ccc(Cl)cc1Cl,–,144,> 10000,–,> 10000,31,–
CCCCCS(=O)(=O)NC(=O)CCc1cc(-c2ccccc2)nn1Cc1ccc(Cl)cc1Cl,–,111,> 10000,–,> 10000,11,–
CCCCCS(=O)(=O)NC(=O)CCCCc1cc(OCCCC)nn1Cc1ccc(Cl)cc1Cl,–,–,–,–,–,29,–
CCCCCS(=O)(=O)NC(=O)CCc1cc(OCc2ccccn2)nn1Cc1ccc(Cl)cc1Cl,–,224,> 10000,–,> 10000,120,–
CC(C)Oc1cc(CCC(=O)NS(C)(=O)=O)n(Cc2ccc(Cl)cc2Cl)n1,–,–,–,–,–,450,–
CC(C)CCS(=O)(=O)NC(=O)CCc1cc(OC(C)C)nn1Cc1ccc(Cl)cc1Cl,–,–,> 10000,–,> 10000,17,–
CCCCCS(=O)(=O)NC(=O)CCc1cc(OC(C)C)nn1Cc1ccc(C(F)(F)F)cc1Cl,> 500,163,> 10000,> 500,> 10000,10,Activity [9]: inactive; IC50 [10]: 21 nM; Activity [11]: inactive
CCCCCS(=O)(=O)NC(=O)/C=C/c1cc(C2CC2)nn1Cc1ccc(C(F)(F)F)cc1Cl,> 500,54,> 10000,> 500,> 10000,–,Activity [9]: inactive; IC50 [10]: 12 nM; Activity (Rattus norvegicus [7]): Dose-dependent effect; ED25 (Rattus norvegicus [7]): 0.42 mg/kg; microsomal CLint at 1 µM [8]: 116 µL/min/mg; Activity [11]: inactive; Activity (Rattus norvegicus [12]): Dose-dependent effect; ED25 (Rattus norvegicus [12]): 0.55 mg/kg
CCCCCS(=O)(=O)NC(=O)Cc1cc(OCCCC)nn1Cc1ccc(Cl)cc1Cl,–,–,–,–,–,> 10000,–
CCCCCS(=O)(=O)NC(=O)CCc1cc(C2CC2)nn1Cc1ccc(C(F)(F)F)cc1Cl,> 500,78,> 10000,> 500,> 10000,13,–
CCCCCS(=O)(=O)NC(=O)CCc1cc(OCc2ccccc2)nn1Cc1ccc(Cl)cc1Cl,–,100,> 10000,–,> 10000,14,–
CCCCCCS(=O)(=O)NC(=O)CCc1cc(OC(C)C)nn1Cc1ccc(Cl)cc1Cl,–,–,> 10000,–,> 10000,21,–
CCCCCS(=O)(=O)NC(=O)/C=C/c1cc(OC(C)C)nn1Cc1ccc(Cl)cc1Cl,> 500,29,> 10000,> 500,> 10000,–,–
CCCCS(=O)(=O)NC(=O)CCc1cc(OC(C)C)nn1Cc1ccc(Cl)cc1Cl,–,165,> 10000,–,> 10000,40,–
CCCCCS(=O)(=O)NC(=O)CCc1cc(C(C)C)nn1Cc1ccc(Cl)cc1Cl,> 500,124,> 10000,> 500,> 10000,13,–
CCCCCS(=O)(=O)NC(=O)/C=C/c1cc(C(C)C)nn1Cc1ccc(Cl)cc1Cl,> 500,99,> 10000,> 500,> 10000,8.2,–
CCCCCS(=O)(=O)NC(=O)CCCc1cc(OCCCC)nn1Cc1ccc(Cl)cc1Cl,–,–,–,–,–,67,–
CC(C)Oc1cc(CCC(=O)NS(=O)(=O)Cc2ccccc2)n(Cc2ccc(Cl)cc2Cl)n1,–,107,–,–,–,260,–
CCCCCS(=O)(=O)NC(=O)/C=C/c1cc(OC(C)C)nn1Cc1ccc(C(F)(F)F)cc1Cl,> 500,26,> 10000,> 500,> 10000,–,Activity [9]: inactive; IC50 [10]: 23 nM; Activity (Rattus norvegicus [7]): Dose-dependent effect; ED25 (Rattus norvegicus [7]): 0.12 mg/kg; microsomal CLint at 1 µM [8]: 33 µL/min/mg; Activity [11]: inactive; Activity (Rattus norvegicus [12]): Dose-dependent effect; ED25 (Rattus norvegicus [12]): 0.04 mg/kg
CCCCCS(=O)(=O)NC(=O)CCc1cc(OCCCC)nn1Cc1ccc(Cl)cc1Cl,–,–,> 10000,–,> 10000,–,–
